Legend:
Design in all cases: key to the marks not given beside the values
Conditions in all cases: purified antibody or control, 5 days incubation, calcein; four experiments in triplicate
[1] = tested on: OVCAR-3 ovarian cancer cell line; assay: Live/Dead cytotoxicity assay
[2] = tested on: CCD-27sk non-cancer cell line
[3] = tested on: NCI-H460 lung cancer cell line; assay: Live/Dead cytotoxicity assay
[4] = tested on: Hs888.Lu non-cancer cell line
[5] = tested on: HT-29 colon cancer cell line; assay: Live/Dead cytotoxicity assay
[6] = tested on: PC-3 prostate cancer cell line
[7] = tested on: MDA-MB-468 (MB-468) breast cancer cell line; assay: Live/Dead cytotoxicity assay
[8] = tested on: MDA-MB-231 (MB-231) breast cancer cell line; assay: Live/Dead cytotoxicity assay
[9] = tested on: MCF-7 breast cancer cell line
[10] = tested on: SW620 colon cancer cell line; assay: Live/Dead cytotoxicity assay
[11] = tested on: SW1116 colon cancer cell line

SMILES | In Vitro Cytotoxicity, OVCAR [1] | In Vitro Cytotoxicity, CCD 27sk [2] | In Vitro Cytotoxicity, NCI H460 [3] | In Vitro Cytotoxicity, Hs888 Lu [4] | In Vitro Cytotoxicity, HT-29 [5] | In Vitro Cytotoxicity, PC-3 [6] | In Vitro Cytotoxicity, MB-468 [7] | In Vitro Cytotoxicity, MB-231 [8] | In Vitro Cytotoxicity, MCF-7 [9] | In Vitro Cytotoxicity, SW620 [10] | In Vitro Cytotoxicity, SW1116 [11]
C[C@@H]1C[C@@H]([C@H](O)CC2CC(=O)NC(=O)C2)C(=O)[C@@H](C)C1 [CHX, Cycloheximide] | +++ | +++ | ++ | +++ | +++ | +++ | +++ | ++ | +++ | ++ | +++
[N-]=[N+]=[N-].[Na+] [NaN3] | +++ | – | +++ | – | +++ | +++ | +++ | +++ | +++ | – | ++

Reference: patent publication US7442776B2, “Cancerous disease modifying antibodies” (priority 1999, dated 2008)
